Results on eight compounds are retold here after US20250236578A1, “NOVEL CANNABINOID DERIVATIVES” (CANNASOUL ANALYTICS LTD., priority 2021, published 2025).

Molecules are shown by their SMILES.

One experiment has as its system Human adrenal cells. Put plainly: Steroidogenesis: cortisol secretion by Forskolin-stimulated human adrenal cells (ELISA). The class given is cell-based. As to conditions: 24 h, Forskolin 10 μM. The protocol:
The effect of the compounds according to certain embodiments of the present invention as inhibitors of steroidogenesis was assessed. Human adrenal cells were thawed and cultured in a suitable medium at a final concentration of 5×10^5 cells per mL (performed in triplicates). Following 24 hours of incubation, cells were treated with 10 μM Forskolin. After 48 hours of incubation, cells were treated with controls (1 μM Prochloraz, and 0.2 μg/mL or 1 μg/mL CBD) and compounds according to embodiments of the present invention for 24 hours. Next, supernatants were collected, and the secretion levels of cortisol were measured by ELISA (R&D systems). Optical density was determined by ‘CLARIOStar-plus’® plate-reader. Cortisol concentration (ng/ml) was calculated using a standard curve.
In general terms: In an ELISA, binding on a coated surface is turned into a signal by an enzyme label.

The next experiment deals with MDA-MB-231 cell line. As to the kind of experiment: PI-positive cell count, breast cancer cells (IncuCyte). The following applies: for Number of cells (PI-positive): 24 h post-treatment. Format: cell-based, Human. Here is the method: (§1) The effect of the compounds according to certain embodiments of the present invention as anti-cancer agents was assessed. Human cancer cells of prostate (PC3 cell line), bladder (T24 cell line), or breast (MDA-MB-231 cell line) cancers were thawed and cultured in suitable media at a final concentration of 3×10^5 cells/mL and tested in triplicates. Following 24 hours of incubation, cells were treated with the tested compounds at 2 μg/ml and 4 μg/ml concentrations or controls (cells were grown in starvation medium and treated with Mitomycin C). Mitomycin C is a potent antineoplastic agent that creates DNA cross-linkage resulting in cell arrest and consequently cell death. It is used to treat various types of cancers such as bladder and breast cancers. In in-vitro models, it acts as a proliferation inhibitor as it induces G0-G1 cell growth arrest. The number of cells in each sample was quantified immediately upon treatment (time-point 0) and every 24 hours until full cell confluency was reached. 24 hours post-treatment, PI (1 μg/ml) was added to the treated cells for 1 hour. Using cell-by-cell analysis (IncuCyte™ cell imager), the PI-positive cells were counted and compared to the relative number of cells in the non-treated (NT) wells.

Another experiment concerns PC3 cell line. Put plainly: PI-positive cell count, prostate cancer cells (IncuCyte). The class given is cell-based, Human. The following applies: for Number of cells (PI-positive): 24 h post-treatment. Here is the method:
as §1

In the next experiment the test system is T24 cell line. As to the kind of experiment: PI-positive cell count, bladder cancer cells (IncuCyte). Format: cell-based, Human. As to conditions: for Number of cells (PI-positive): 24 h post-treatment. The protocol:
as §1

The mark [1] stands for this setting: Breast cancer MDA-MB-231, 2 μg/ml.
Where [2] appears, read: Breast cancer MDA-MB-231, 4 μg/ml.

For the compound `C=C(C)[C@@H]1CCC(C)=C[C@H]1c1c(O)cc(CCCCC)cc1O` [CBD, cannabidiol, reference compound], the “Cortisol” value in the experiment with Human adrenal cells (inhibitor 0.2 μg/mL) is 101 ng/mL; in the experiment with Human adrenal cells (inhibitor 1 μg/mL), 62 ng/mL. Further, the “Cortisol % of Forskolin” value was 95% in the experiment on Human adrenal cells (inhibitor 0.2 μg/mL) and 58% in the experiment with Human adrenal cells (inhibitor 1 μg/mL). Besides, the “% NT (PI-positive cells relative to non-treated)” value is 175% with MDA-MB-231 cell line (setting [1]); 1325% with MDA-MB-231 cell line (setting [2]); 90% with PC3 cell line (Prostate cancer PC3, 2 μg/ml); 320% in the experiment with PC3 cell line (Prostate cancer PC3, 4 μg/ml); 156% in the experiment on T24 cell line (Bladder cancer T24, 2 μg/ml); 1794% with T24 cell line (Bladder cancer T24, 4 μg/ml). In addition, the “Number of cells (PI-positive)” value with MDA-MB-231 cell line (setting [1]) stood at 89.40; in the experiment with MDA-MB-231 cell line (setting [2]), 675.73; with PC3 cell line (Prostate cancer PC3, 2 μg/ml), 22.53; in the experiment on PC3 cell line (Prostate cancer PC3, 4 μg/ml) it was 80.13; in the experiment with T24 cell line (Bladder cancer T24, 2 μg/ml), 171.47; in the experiment with T24 cell line (Bladder cancer T24, 4 μg/ml) it was 1969.93.
In the case of `CCCCCCc1cc(O)c(C2C=C(C)CCC2C(C)(C)O)c(O)c1` (stereo not drawn) [Formula 1], in the experiment with Human adrenal cells (inhibitor 0.2 μg/mL), the “Cortisol” value is listed as 37 ng/mL and the “Cortisol % of Forskolin” value came out at 35%. For the same compound, in the experiment with Human adrenal cells (inhibitor 1 μg/mL), the “Cortisol” value is 24 ng/mL and the “Cortisol % of Forskolin” value was 22%. Moreover, in the experiment on PC3 cell line (Prostate cancer PC3, 2 μg/ml), the “% NT (PI-positive cells relative to non-treated)” value turned out to be 216% and the “Number of cells (PI-positive)” value stood at 54.13. In the experiment with PC3 cell line (Prostate cancer PC3, 4 μg/ml), the “% NT (PI-positive cells relative to non-treated)” value is 260% and the “Number of cells (PI-positive)” value was 65.27.
For the compound `CCCCCc1cc(O)c(C2CC(C)CCC2C(C)(C)O)c(O)c1` (stereo not drawn) [Formula 2], the “Cortisol” value with Human adrenal cells (inhibitor 0.2 μg/mL) is on record as 100 ng/mL; with Human adrenal cells (inhibitor 1 μg/mL), 77 ng/mL. Moreover, the figures for the “Cortisol % of Forskolin” value in the experiment on Human adrenal cells (inhibitor 0.2 μg/mL) and in the experiment on Human adrenal cells (inhibitor 1 μg/mL) were 94% and 72%, respectively. Also, the “% NT (PI-positive cells relative to non-treated)” value in the experiment on PC3 cell line (Prostate cancer PC3, 2 μg/ml) came to 307%; in the experiment with PC3 cell line (Prostate cancer PC3, 4 μg/ml), 363%. Moreover, the “Number of cells (PI-positive)” value with PC3 cell line (Prostate cancer PC3, 2 μg/ml) was 76.93; in the experiment with PC3 cell line (Prostate cancer PC3, 4 μg/ml), 90.93.
In the case of `CCCCCCCc1cc(O)c(C2C=C(C)CCC2C(C)(C)O)c(O)c1` (stereo not drawn) [Formula 4], the “Cortisol” value with Human adrenal cells (inhibitor 0.2 μg/mL) is recorded as 38 ng/mL; in the experiment on Human adrenal cells (inhibitor 1 μg/mL) it was 35 ng/mL. Further, the “Cortisol % of Forskolin” value was determined as 36% with Human adrenal cells (inhibitor 0.2 μg/mL) and 32% in the experiment with Human adrenal cells (inhibitor 1 μg/mL). For the same compound, the “% NT (PI-positive cells relative to non-treated)” value with MDA-MB-231 cell line (setting [1]) is recorded as 120%; in the experiment with MDA-MB-231 cell line (setting [2]), 1417%; in the experiment with PC3 cell line (Prostate cancer PC3, 2 μg/ml) it was 228%; with PC3 cell line (Prostate cancer PC3, 4 μg/ml), 2810%; with T24 cell line (Bladder cancer T24, 2 μg/ml), 108%; with T24 cell line (Bladder cancer T24, 4 μg/ml) it was 703%. The “Number of cells (PI-positive)” value is recorded as 61.07 in the experiment on MDA-MB-231 cell line (setting [1]); 722.47 in the experiment with MDA-MB-231 cell line (setting [2]); 57.27 with PC3 cell line (Prostate cancer PC3, 2 μg/ml); 704.33 with PC3 cell line (Prostate cancer PC3, 4 μg/ml); 118.20 in the experiment on T24 cell line (Bladder cancer T24, 2 μg/ml); 771.60 in the experiment with T24 cell line (Bladder cancer T24, 4 μg/ml).
Consider `CCCCCCC(C)(C)c1cc(O)c(C2C=C(C)CCC2C(C)(C)O)c(O)c1` (stereo not drawn) [Formula 7], for which the “Cortisol” value in the experiment with Human adrenal cells (inhibitor 0.2 μg/mL) is 39 ng/mL; in the experiment with Human adrenal cells (inhibitor 1 μg/mL), 47 ng/mL. Moreover, the “Cortisol % of Forskolin” value in the experiment with Human adrenal cells (inhibitor 0.2 μg/mL) was determined as 37%; in the experiment on Human adrenal cells (inhibitor 1 μg/mL), 44%. Also, the “% NT (PI-positive cells relative to non-treated)” value in the experiment on MDA-MB-231 cell line (setting [1]) was found to be 277%; in the experiment on MDA-MB-231 cell line (setting [2]), 2197%; in the experiment on PC3 cell line (Prostate cancer PC3, 2 μg/ml), 326%; in the experiment with PC3 cell line (Prostate cancer PC3, 4 μg/ml), 4139%; in the experiment on T24 cell line (Bladder cancer T24, 2 μg/ml), 429%; in the experiment with T24 cell line (Bladder cancer T24, 4 μg/ml) it was 1156%. The “Number of cells (PI-positive)” value in the experiment with MDA-MB-231 cell line (setting [1]) is given as 141.47; in the experiment on MDA-MB-231 cell line (setting [2]), 1120.53; with PC3 cell line (Prostate cancer PC3, 2 μg/ml) it was 81.80; with PC3 cell line (Prostate cancer PC3, 4 μg/ml), 1037.53; in the experiment with T24 cell line (Bladder cancer T24, 2 μg/ml), 470.67; in the experiment on T24 cell line (Bladder cancer T24, 4 μg/ml) it was 1269.33.
For the compound `CCCCCc1cc(O)c(C2C=C(C)CCC2C(C)(C)O)c(O)c1C(=O)OC` (stereo not drawn) [Formula 12], in the experiment with Human adrenal cells (inhibitor 0.2 μg/mL), the “Cortisol” value stood at 43 ng/mL and the “Cortisol % of Forskolin” value was determined as 41%. Also, in the experiment with Human adrenal cells (inhibitor 1 μg/mL), the “Cortisol” value stood at 45 ng/mL and the “Cortisol % of Forskolin” value is 42%. In addition, in the experiment on PC3 cell line (Prostate cancer PC3, 2 μg/ml), the “% NT (PI-positive cells relative to non-treated)” value was determined as 215% and the “Number of cells (PI-positive)” value stood at 53.93. For the same compound, in the experiment on PC3 cell line (Prostate cancer PC3, 4 μg/ml), the “% NT (PI-positive cells relative to non-treated)” value stood at 390% and the “Number of cells (PI-positive)” value came out at 97.80.
Turning to `CCCCCc1cc(O)c(C2C=C(C)CCC2C(C)(C)O)c(O)c1C(=O)NCCCN1CCOCC1` (stereo not drawn) [Formula 14], in the experiment on Human adrenal cells (inhibitor 0.2 μg/mL), the “Cortisol” value worked out at 41 ng/mL and the “Cortisol % of Forskolin” value stood at 39%. In addition, in the experiment with Human adrenal cells (inhibitor 1 μg/mL), the “Cortisol” value was 45 ng/mL and the “Cortisol % of Forskolin” value was 42%.
Turning to `CCCN(CCOc1c(Cl)cc(Cl)cc1Cl)C(=O)n1ccnc1` [Prochloraz, reference compound], in the experiment on Human adrenal cells (inhibitor 1 μg/mL), the “Cortisol” value is on record as 23 ng/mL and the “Cortisol % of Forskolin” value is listed as 22%.
